Experimental data from the supplement of paper PMC10307832.

Experiments:
Test in all cases: relative viability (nuclei count vs DMSO), 5 days (fraction); higher = more cells survive
GSK-J4 + Lapatinib = compound: CCOC(=O)CCNc1cc(N2CCc3ccccc3CC2)nc(-c2ccccn2)n1 [GSK-J4] + CS(=O)(=O)CCNCc1ccc(-c2ccc3ncnc(Nc4ccc(OCc5cccc(F)c5)c(Cl)c4)c3c2)o1 [Lapatinib] (partner 2 µM)
In short: (§1)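 Five library-drug doses in √10 steps were combined with a fixed anchor-drug dose, or a single drug was given alone, by pin tool to lung cancer cell lines in 1536-well plates the day after seeding. Nuclei were stained and counted after 5 days. Relative viability is the nuclei count in treated wells over that in vehicle wells, taken as the median of duplicate plates.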

GSK-J4 + Olaparib = compound: CCOC(=O)CCNc1cc(N2CCc3ccccc3CC2)nc(-c2ccccn2)n1 [GSK-J4] + O=C(c1cc(Cc2n[nH]c(=O)c3ccccc23)ccc1F)N1CCN(C(=O)C2CC2)CC1 [Olaparib] (partner 8 µM)
In short: as §1

AZ3146 + Tozasertib = compound: CN1CCC(CC1)OC2=CC(=C(C=C2)NC3=NC=C4C(=N3)N(C(=O)N4C)C5CCCC5)OC [AZ3146] + Cc1cc(Nc2cc(N3CCN(C)CC3)nc(Sc3ccc(NC(=O)C4CC4)cc3)n2)n[nH]1 [Tozasertib] (partner 0.1 µM)
In short: as §1

AZ3146 + Decitabine = compound: CN1CCC(CC1)OC2=CC(=C(C=C2)NC3=NC=C4C(=N3)N(C(=O)N4C)C5CCCC5)OC [AZ3146] + Nc1ncn([C@H]2C[C@H](O)[C@@H](CO)O2)c(=O)n1 [Decitabine] (partner 2 µM)
In short: as §1

Cell Line | relative viability (GSK-J4 + Lapatinib; first compound 0.5 µM) | relative viability (GSK-J4 + Lapatinib; first compound 1.581 µM) | relative viability (GSK-J4 + Lapatinib; first compound 15.81 µM) | relative viability (GSK-J4 + Lapatinib; first compound 50 µM) | relative viability (GSK-J4 + Olaparib; first compound 0.5 µM) | relative viability (GSK-J4 + Olaparib; first compound 1.581 µM) | relative viability (GSK-J4 + Olaparib; first compound 15.81 µM) | relative viability (GSK-J4 + Olaparib; first compound 50 µM) | relative viability (AZ3146 + Tozasertib; first compound 0.08 µM) | relative viability (AZ3146 + Tozasertib; first compound 0.253 µM) | relative viability (AZ3146 + Tozasertib; first compound 0.8 µM) | relative viability (AZ3146 + Tozasertib; first compound 2.53 µM) | relative viability (AZ3146 + Tozasertib; first compound 8 µM) | relative viability (AZ3146 + Decitabine; first compound 0.08 µM) | relative viability (AZ3146 + Decitabine; first compound 0.253 µM) | relative viability (AZ3146 + Decitabine; first compound 0.8 µM) | relative viability (AZ3146 + Decitabine; first compound 2.53 µM) | relative viability (AZ3146 + Decitabine; first compound 8 µM) | relative viability (GSK-J4 + Lapatinib; first compound 5 µM) | relative viability (GSK-J4 + Olaparib; first compound 5 µM)
NCI-H2405 | 1.15 | 1.03 | 1.09 | 1.17 | 0.849 | 0.836 | 0.815 | 0.777 | 0.609 | 0.784 | 0.63 | 0.577 | 0.397 | 0.733 | 0.738 | 0.789 | 0.788 | 0.697 | – | –
NCI-H3122 | 0.966 | 0.989 | 0.964 | 0.911 | 0.539 | 0.578 | 0.575 | 0.504 | 0.397 | 0.345 | 0.307 | 0.344 | 0.228 | 0.475 | 0.44 | 0.42 | 0.426 | 0.514 | 1 | 0.668
PC-3 [JPC-3] | 0.47 | 0.385 | 0.43 | 0.427 | 1.06 | 1.06 | 1.07 | 0.801 | 0.829 | 0.905 | 0.855 | 0.877 | 0.715 | 0.768 | – | 0.806 | 0.81 | 0.85 | 0.578 | 0.996
PC-14 | 0.351 | 0.228 | 0.249 | 0.323 | 0.304 | 0.271 | 0.228 | 0.227 | 0.33 | 0.589 | 0.543 | 0.386 | 0.0776 | 0.208 | 0.2 | 0.249 | 0.15 | 0.0833 | 0.344 | 0.195
RERF-LC-KJ | 0.843 | 0.802 | 0.788 | 0.734 | 0.867 | 0.928 | 0.814 | 0.484 | 0.465 | 0.497 | 0.403 | 0.294 | 0.25 | 0.69 | 0.704 | 0.731 | 0.73 | 0.381 | 0.749 | 0.867
SK-LU-1 | 0.758 | 0.776 | 0.616 | 0.585 | 0.433 | 0.465 | 0.428 | 0.309 | 0.354 | 0.293 | 0.279 | 0.3 | 0.216 | 0.558 | 0.684 | 0.552 | 0.647 | 0.692 | 0.668 | 0.429
SK-MES-1 | 0.452 | 0.495 | 0.392 | 0.421 | 0.675 | 0.641 | 0.626 | 0.22 | 0.891 | 0.97 | 0.77 | 0.276 | 0.211 | 0.364 | 0.397 | 0.359 | 0.477 | 0.344 | 0.459 | 0.727
SW 1573 | 1.05 | 1.05 | 0.865 | 1.02 | 0.471 | 0.365 | 0.354 | 0.153 | 0.208 | 0.162 | 0.179 | 0.164 | 0.195 | 0.509 | 0.605 | 0.542 | 0.397 | 0.162 | 0.728 | 0.486
